Measurements published in patent US20190062684A1, “Microfluidic System for Reproducing Functional Units of Tissues and Organs In Vitro” (NORTIS, INC., priority 2012, published 2019).

System: vascular-cell tube (engineered from primary human microvascular endothelial cells)

average permeability through the vascular-cell tube wall: 25 ×10⁻⁶ cm/s
SMILES: O=C(O)c1ccccc1-c1c2cc(F)c(=O)cc-2oc2cc(O)c(F)cc12 [Oregon Green]
